The values that follow are results of earlier work, collected in US20090175824A1, “Peptides for the treatment of HCV infections” (priority 2007, published 2009).

For this data set the following is noted: patients with hepatitis C.

As for `CC(C)(C)NC(=O)NC(C(=O)N1CC2C(C1C(=O)NC(CC1CCC1)C(=O)C(N)=O)C2(C)C)C(C)(C)C` (centres unmarked) [boceprevir, N-(4-amino-1-cyclobutyl-3,4-dioxobutan-2-yl)-3-(2-(3-tert-butylureido)-3,3-dimethylbutanoyl)-6,6-dimethyl-3-azabicyclo[3.1.0]hexane-2-carboxamide], the adverse events result was “infrequent and included headache, fever and myalgia”; the tolerability entry was “well-tolerated”.
